This is an account of results in patent US20260373119A1, “NOVEL COMPOUND, AND COMPOSITION FOR PREVENTING OR TREATING HER2-POSITIVE CANCER, COMPRISING SAME” (EWHA UNIVERSITY - INDUSTRY COLLABORATION FOUNDATION, priority 2022, published 2026).

In data set [1] the test system is HCT15 (HER2-positive colorectal cancer cell line). In words: antiproliferative effect, HCT15. It counts as cell-based. Particulars: Homo sapiens, HCT-15, 72 hours.
A short description of a further data set: solubility. It counts as physicochemical. To be noted: pH 7.
For data set [2], the system named is HER2 and downstream signaling (phosphorylated AKT and MAPK). In words: HER2 expression and downstream signaling, TZMB-sensitive and -resistant cells. It is filed as cell-based.
Description: For western blot analysis, cells were seeded in a 6-well plate and lysed in 1×RIPA lysis buffer (Cell Signaling, USA) containing 1% 0.1 M [COMPOUND LEFT OUT] and 1% 100× protease inhibitor cocktail solution (Genedepot, USA). Total protein levels were standardized using the Pierce™ BCA Protein Assay Kit (Thermo Fisher Scientific, USA) and a microplate reader (Tecan Group Ltd., Switzerland). A total of 20 μg of protein was loaded onto a 10-15% SDS-PAGE acrylamide gel and transferred to a 0.2 μm PVDF membrane (Pall Life Science, USA). The membrane was blocked with 5% skim milk or 5% BSA, and the membrane was cultured with primary antibodies (purchased from Thermo Fisher, Cell Signaling, Santa Cruz, Novus, or MBL) at room temperature for 3 hours or overnight at 4 °C. The blot was washed three times with Tris-buffered saline containing 0.1% Tween20 (1×TBST) and incubated with an HRP-conjugated secondary antibody (GeneTex, USA). Protein bands were detected using ECL solution reagents (GE Healthcare, USA) and the LAS-3000 imaging system (Fuji Photo Film Co., Ltd., Japan), and captured images were analyzed using Multi-Gauge software (Fuji Photo Film Co. Ltd.). The preparation of cell lysates for subsequent analyses was performed using the same method as described for western blot analysis.
(§1) The ability of the candidate compound to overcome trastuzumab resistance was evaluated.
For data set [3], the target named is MED23 wild-type (FLAG-tagged) (Homo sapiens, UniProt Q9ULK4). In words: LC-MS/MS protein-small molecule interaction, wild-type MED23. It is filed as binding. Particulars: FLAG pulldown, LC-MS/MS. As to the method: HEK293 cells were seeded in a […] and incubated until they reached 70-80% confluency. The cells were transfected with p3Xflag-myc-CMV26-MED23^WT and p3Xflag-myc-CMV26-MED23^D400A/H449G plasmids for 24 hours, followed by lysis to obtain protein extracts. To isolate the candidate compound (YK1) bound to MED23, total lysates were incubated with YK1 for 4 hours and subsequently subjected to pulldown using FLAG-agarose beads (Sigma Aldrich, USA). The precipitated beads were washed at least three times to completely remove unbound compounds. To separate the candidate compound from the precipitated MED23, 50 μL of the sample was extracted with 1 mL of acetonitrile and centrifuged at 13,000 rpm at 4 °C for 10 minutes. The supernatant (1,000 μL) from each sample was transferred to a new tube and dried under nitrogen gas at 37 °C. For YK1 analysis, the residue was dissolved in 50 μL of ACN and vortexed for 10 minutes. […] The mixture was then extracted with 450 μL of ACN by ultrasonic treatment and vortex mixing. The candidate compound bound to MED23 was finally analyzed using an Agilent 6460 triple quadrupole mass spectrometer (Agilent Technologies, USA).

For a further data set, the system named is TZMB-sensitive cells. In words: treatment of TZMB-sensitive cells. Particulars: parent BT474 and NCI-N87. It is filed as cell-based.
Another data set relates to TZMB-resistant cells. In words: clonal analysis. It is filed as cell-based. To be noted: 14 days; TZMB 10 or 20 μg/mL, YK1 0.5 or 1 μM. As to the method: To validate the above results, clonal analysis was performed. […] The incubated cells were fixed with 100% methanol for 1 hour and then stained with 200 μL of crystal violet solution per well. After washing the cells with tap water, images were captured using a ChemiDoc bio-image analyzer (Bio-Rad), and quantification was performed with ImageJ software (NIH, Bethesda, MD, USA). All processes following the fixation were conducted at room temperature.

The next data set concerns NCI-N87 cells. In words: apoptosis analysis (Annexin V, FACS). It is filed as cell-based. Particulars: dose-dependent. The procedure: Specifically, 5×10^5 NCI-N87 cells were seeded in 60 mm dishes and cultured until they reached 70-80% confluence. The cells were treated with varying concentrations of the candidate compound and cultured for 8 hours. The cells were treated with trypsin and then washed with cold PBS (pH 7.4). For cell cycle analysis, the cells were fixed with 70% ethanol and cultured at 4 °C for 30 minutes, followed by staining with FxCycle™ PI/RNase staining solution (Invitrogen™, USA). Cell cycle analysis was performed using a fluorescence-activated cell sorting (FACS) device (BD Biosciences, USA).
Cells for apoptosis analysis were prepared using the same method as described for the cell cycle analysis. The cells were treated with trypsin, washed with 1×PBS, and resuspended in each sample using the FITC Annexin V Apoptosis Detection Kit I (BD Pharmingen™). Apoptosis was analyzed using a FACS device.

A further data set deals with Ki-67. In words: IHC of NCI-N87 xenograft tumors, Ki-67. It counts as in vivo, mice. Particulars: vs control group. As to the method: Xenograft mice were generated to evaluate the anticancer effects of the candidate compound. NCI-N87 and JIMT-1 cells (5×10^6 cells), dissolved in 100 μL of 1× phosphate-buffered saline (PBS), were subcutaneously injected into the right flanks of 5-week-old female athymic nude mice (Envigo, USA) or 4-week-old female NOD-SCID mice (Koatech, South Korea). When the tumors reached a volume of 90-100 mm^3, the mice were randomized into designated groups. For the NCI-N87 xenograft, intravenous administration was performed six times at 3-day intervals. For the JIMT-1 xenograft, intraperitoneal administration was performed eight times at 3-day intervals. […] Tumor size changes were monitored until the mean tumor size in the control group reached 2,000-2,500 mm^3. On day 28 for the NCI-N87 xenograft and day 46 for the JIMT-1 xenograft, the mice were sacrificed, and tumors were excised to determine relative tumor sizes. Tumor length (L) and width (W) were measured with calipers, and tumor volume was calculated using the formula: […]
For immunohistochemistry (IHC) analysis, tumors from the xenograft models were prepared as paraffin-embedded sections. […] The control group was counterstained with hematoxylin, and the IHC staining was evaluated under an optical microscope at 200× magnification.

Another data set has as its system HER2 gene. In words: HER2 gene (mRNA) expression. It is filed as cell-based. Particulars: dose-dependent. The procedure: To further confirm the effects of the candidate compound, […] quantitative analysis was performed. Specifically, RNA was extracted from cells using the FavorPrep Tri-RNA reagent (FAVORGEN Biotech Corp., Taiwan) and reverse-transcribed into complementary DNA (cDNA) using the PrimeScript RT Reagent Kit (Takara Bio Inc., Japan) following the manufacturer's instructions. Quantitative gene analysis was conducted using the SensiFAST SYBR No-ROX kit (Bioline, Canada). PCR was performed using the CFX96™ real-time PCR detection system (Bio-Rad, USA) under the following protocol: 95 °C for 2 minutes, and 27 cycles at 95 °C for 10 seconds, 56 °C for 10 seconds, and 72 °C for 20 seconds. The relative amount of mRNA was determined using the ΔΔCt method, and normalized against GAPDH or ACTIN. […]

Values after ≈ are worked out from the molar mass of the structure shown.

Sequence of MED23 wild-type (FLAG-tagged) (Q9ULK4 whole entry): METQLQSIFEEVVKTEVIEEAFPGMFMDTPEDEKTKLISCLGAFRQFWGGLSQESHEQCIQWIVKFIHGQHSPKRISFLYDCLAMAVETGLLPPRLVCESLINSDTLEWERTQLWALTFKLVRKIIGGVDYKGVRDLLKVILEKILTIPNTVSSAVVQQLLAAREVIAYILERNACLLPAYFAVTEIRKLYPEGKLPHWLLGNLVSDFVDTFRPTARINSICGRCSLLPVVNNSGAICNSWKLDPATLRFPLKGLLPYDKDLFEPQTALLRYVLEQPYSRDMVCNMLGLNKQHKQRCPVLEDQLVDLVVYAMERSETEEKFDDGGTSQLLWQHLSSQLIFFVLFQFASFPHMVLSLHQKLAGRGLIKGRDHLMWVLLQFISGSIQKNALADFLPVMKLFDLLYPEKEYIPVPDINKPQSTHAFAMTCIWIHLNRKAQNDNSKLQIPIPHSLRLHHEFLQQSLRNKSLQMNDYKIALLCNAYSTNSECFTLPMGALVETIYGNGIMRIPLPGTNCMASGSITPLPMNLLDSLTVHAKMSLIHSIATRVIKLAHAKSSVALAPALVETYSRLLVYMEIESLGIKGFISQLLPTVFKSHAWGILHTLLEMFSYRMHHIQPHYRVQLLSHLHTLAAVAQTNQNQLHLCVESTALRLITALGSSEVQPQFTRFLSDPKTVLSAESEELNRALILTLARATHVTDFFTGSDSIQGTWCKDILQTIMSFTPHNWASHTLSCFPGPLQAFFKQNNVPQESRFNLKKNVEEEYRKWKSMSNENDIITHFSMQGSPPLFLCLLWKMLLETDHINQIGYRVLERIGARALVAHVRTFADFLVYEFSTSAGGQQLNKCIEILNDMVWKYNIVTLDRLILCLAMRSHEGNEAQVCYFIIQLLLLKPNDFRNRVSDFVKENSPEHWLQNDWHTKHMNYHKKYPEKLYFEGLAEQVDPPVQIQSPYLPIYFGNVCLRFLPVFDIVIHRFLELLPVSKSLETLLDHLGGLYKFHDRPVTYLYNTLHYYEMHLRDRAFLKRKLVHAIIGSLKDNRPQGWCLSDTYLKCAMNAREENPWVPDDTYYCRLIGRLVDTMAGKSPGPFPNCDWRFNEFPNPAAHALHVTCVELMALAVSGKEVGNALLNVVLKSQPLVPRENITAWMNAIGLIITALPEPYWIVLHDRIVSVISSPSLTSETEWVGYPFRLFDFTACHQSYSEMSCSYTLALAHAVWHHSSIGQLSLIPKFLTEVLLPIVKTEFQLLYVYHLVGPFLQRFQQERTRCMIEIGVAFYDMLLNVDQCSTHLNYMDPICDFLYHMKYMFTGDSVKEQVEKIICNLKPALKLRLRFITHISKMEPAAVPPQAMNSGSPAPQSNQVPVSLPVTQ
Description for TZMB-sensitive cells: as §1

In the case of `CC(=O)N1N=C(c2cccc(O)c2)CC1c1ccc(Cl)cc1` (stereo not drawn) [Compound 15, 1-[5-(4-Chlorophenyl)-3-(3-hydroxyphenyl)-4,5-dihydropyrazol-1-yl]-ethanone], in data set [1], the IC50 amounted to 7.66 ± 0.04 µM. Further, the solubility in the data set “solubility” turned out to be 103.2 ± 0.6 µg/mL (≈ 328 µM). In addition, the “HER2 expression and downstream signaling” value in data set [2] is “significantly downregulated HER2 expression and downstream signaling, including phosphorylated AKT and MAPK”. The “binding to wild-type MED23” value in data set [3] was “able to bind to wild-type MED23”. Besides, in the data set with TZMB-sensitive cells, the “anticancer effect in TZMB-sensitive cells” value was “significant anticancer effects not only in TZMB-sensitive cells but also in TZMB-resistant cells”. Moreover, in the data set with TZMB-resistant cells, the “effect against TZMB resistance in clonal analysis” value was “effective against TZMB resistance”. Besides, in the data set on NCI-N87 cells, the apoptosis entry is “significantly promoted apoptosis in a dose-dependent manner”. Also, in the data set with Ki-67, the “proliferation marker Ki-67” value was “significant decrease”. The “HER2 gene expression level” value with HER2 gene is “significantly downregulate HER2 gene and protein expression levels in a dose-dependent manner”.

One may read the IC50 as the concentration needed to halve the response being measured. A lower IC50 goes with inhibition by little substance. In general, solubility refers to how much of the substance goes into solution per volume. Higher therefore signals a readily soluble substance.
